How the values were obtained:
[1] = tested on: β-oxidation genes; test: Effects on the expression of β-oxidation genes, quantitative RT-PCR; format: in vivo, Wistar male rats; details: Example 6, FIGS. 6A/6B; 200 mg/kg peroral three times at 24-hr intervals, 4 hours after final administration
Experimental: Wistar male rats (6-wk old) were purchased from CLEA Japan, Inc. and habituated in the test environment for a week; the animals that were seen to grow normally were subjected to the test. The rats were divided into six groups each consisting of 5 heads. The control group was administered with olive oil only. For the test groups, the high purity sesamin and episesamin obtained in Example 1 were incorporated at varying weight ratios of 10:0, 5:5, 3:7, 1:9 and 0:10 to prepare sesamin/episesamin mixtures, which were suspended in olive oil at a dose of 200 mg/kg. The rats were administered perorally with olive oil or the suspension three times at 24-hr intervals. Four hours after the final administration, the kidney was removed from each rat under anesthetization with Nembutal; after extracting RNA, effects on the expression of 10 β-oxidation genes were investigated by quantitative RT-PCR using TaqMan chemistry (Heid C A, Stevens J, Livak K J, Williams P M, Real time quantitative PCR, Genome Res. 1996 6(10):986-94).
In contrast, each of the groups administered with the sesamin/episesamin mixture experienced more elevated gene expression than the group administered with episesamin alone. The effect of the mixing ratio was somewhat variable from one gene to another but no significant difference was found among the three groups administered with the sesamin/episesamin mixture.

[2] = Oral absorption of episesamin and its transfer into blood circulation (I), LC-MS/MS of plasma; set-up: species or system SD (IGS) male rats; details: male, SD (IGS), rat, in vivo, 10 mg/kg
Experimental: (§1) SD (IGS) male rats (6-wk old) were purchased from CHARLES RIVER JAPAN INC. and habituated in the test environment for a week; the animals that were seen to grow normally were subjected to the test. The rats fasted overnight were divided into six groups each consisting of 5 heads; the high purity sesamin and episesamin obtained in Example 1 were incorporated at varying weight ratios of 6:4, 5:5, 4:6, 3:7, 1:9 and 0:10 to prepare sesamin/episesamin mixtures, which were dissolved in olive oil at a dose of 10 mg/kg and administered perorally to the rats via a feeding tube. […] After adding an internal standard, solid-phase extraction was performed with Oassis HLB and the liquid extract was concentrated under vacuum, suspended in methanol, passed through a filter, and subjected to LC-MS/MS for quantification of sesamin and episesamin. The quantity of sesamin or episesamin was determined from the ratio between the peak area of sesamin or episesamin and that of UDESMIN (Funakoshi Co, Ltd.) used as the internal standard. […]
The concentration of episesamin in blood peaked in about 6 hours after the administration, then decreased gradually until it became almost undetectable in 24 hours. From the blood concentration curve for 0-24 hours, the area under the curve (AUC) was determined as an index of absorbed quantity. […]

[3] = tested on: Deoxycorticosterone Acetate-Salt (DOCA-Salt) Induced Hypertension Model Rats; test: Blood pressure lowering action in DOCA-salt induced hypertension model rats (tail-cuff SBP); format: in vivo, SD male rats; details: 100 mg/kg single oral; for changes in blood pressure for 24 hours after the single administration: Example 4, FIG. 3, n=5-7; for changes in blood pressure 8 hours after the administration: Example 4, FIG. 4
Experimental: SD male rats (6-wk old) (purchased from Japan SLC, Inc.) were subjected to surgery for removing the right kidney under anesthetization with Nembutal. After recuperation for a week, the rats were administered subcutaneously with DOCA-salt twice a week at a dose of 15 mg/kg, and allowed to drink 1% saline. The systolic blood pressure (SBP) of each animal was measured by a tail-cuff method with a non-invasive automatic blood pressure measuring apparatus (BP-98A, Softron, Tokyo). At 5 weeks after the start of treatment with DOCA-salt, blood pressure was measured and the animals in which adequate elevation of blood pressure was verified were used in the following experiment. Rats fasted for 8 hours were divided into a control group and three test groups. The control group was administered olive oil only. For the test groups, the high purity sesamin and episesamin obtained in Example 1 were incorporated at varying weight ratios of 10:0, 5:5 and 0:10 to prepare sesamin/episesamin mixtures, which were suspended in olive oil at a dose of 100 mg/kg. Single oral administration of olive oil or the suspension was effected via a feeding tube. Both before the administration and 2, 4, 6, 8, 10, 12 and 24 hours after the administration, SBP measurement was conducted. Diet was applied after the blood pressure measurement at 12 hours. Testing was conducted at 1-wk intervals and the same head was subjected to no more than three measurements.
Sesamin and episesamin were incorporated at varying weight ratios of 5:5, 3:7 and 1:9 to prepare sesamin/episesamin mixtures, which were dissolved in olive oil at a dose of 50 mg/kg. Single oral administration of the solution was effected via a feeding tube, and for blood pressure measurement was conducted.

[4] = tested on: β-oxidation enzymes in the liver; details: rats, separately administered orally; cited from earlier work
[5] = rat, in vivo, po; cited from earlier work
[6] = Oral absorption of episesamin and its transfer into blood circulation (II), lowered sesamin ratios; set-up: species or system rats; details: male, SD (IGS), rat, in vivo, 10 mg/kg
Experimental: as §1
With a view to prescribing effective mixing ratios of sesamin, the action of further lowered ratios of sesamin was evaluated in accordance with the method of Example 2. […]

[7] = tested on: fatty acid synthases; details: rats, separately administered orally; cited from earlier work

SMILES: c1cc2c(cc1[C@H]1OC[C@H]3[C@@H]1CO[C@H]3c1ccc3c(c1)OCO3)OCO2 [episesamin]
- expression of β-oxidation genes [1]: many genes were expressed in increased amounts
- percent absorption of episesamin (AUC 0-24 hours divided by relative amount of episesamin administered) [2]: 72.5%
- changes in blood pressure for 24 hours after the single administration [3]: No significant changes
- changes in blood pressure 8 hours after the administration [3]: −6 mmHg
- gene expression and enzymatic activity of β-oxidation enzymes in the liver compared with sesamin [4]: markedly increased
- transfer into organs relative to sesamin [5]: at least twice as much as that of sesamin
- percent absorption of episesamin [6]: 59.7%
- activity for inhibiting fatty acid synthases, sesamin versus episesamin [7]: no difference between sesamin and episesamin

SMILES: c1cc2c(cc1[C@H]1OC[C@H]3[C@@H]1CO[C@@H]3c1ccc3c(c1)OCO3)OCO2 [sesamin]
- expression of β-oxidation genes [1]: hardly rose
- changes in blood pressure for 24 hours after the single administration [3]: No significant changes
- changes in blood pressure 8 hours after the administration [3]: −13 mmHg
- activity for inhibiting fatty acid synthases, sesamin versus episesamin [7]: no difference between sesamin and episesamin

Source: US20080275110A1, “Sesamin/Episesamin Compositions” (priority 2004, published 2008)
